Patent US6344184B1, “Oral composition for inhibiting oral malodor” (priority 1999, dated 2002)
Read-outs that look alike come from different tables or passages of the source.

Test system: VSCs (hydrogen sulfide, methyl mercaptan) formed by bacteria in freshly collected human saliva
Experiment: In vitro VSC inhibition in incubated human saliva, gas chromatography of gas phase
Type: cell-based
Protocol: In vitro experiments were performed to test the VSC-inhibiting potential of different combinations of zinc acetate and cationic antibacterial agents.
To a 1 ml sample of freshly collected human saliva in a test tube was added 10 microliter of the solutions (mouthrinses) described below. The test tubes were closed with a stopper and incubated overnight at 37° C. A control tube which contained only saliva served as a control. It is well known that large amounts of VSCs are formed in a test tube during the latter conditions, the bacteria breaking down the salivary proteins and forming VSCs from cysteine and methionine. The VSCs in the gas phase above the incubated saliva, were measured by gas chromatography in a Shimadzu 14B instrument, and hydrogen sulfide, methyl mercaptan and di-methyl sulfide were used as standard.
The solutions to be tested were: 0.3% zinc acetate, 0.025% chlorhexidine, 0.025% cetylpyridinium chloride and 0.025% benzalkonium chlorides. Subsequently the zinc acetate was combined with each of the individual antibacterial agents. All the experiments described In this paragraph were performed on the same day under Identical conditions. The concentrations chosen were based on experience from pilot experiments with different concentrations of the zinc and antibacterial agents.
An examination was conducted to investigate whether the effect of the combinations of zinc acetate and the individual antibacterial agents represented a synergistic effect. This was performed according to the method of Behrenbaum (J.lnf. Dis. 137:122-130, 1978). The fractional inhibitory concentrations (the FIC index) was calculated based on the amounts (AUC) of hydrogen sulfide and methyl mercaptan formed under different conditions. […] The FIC index was calculated from the following formula: (A+B)/A+(A+B)/B, where A+B represents the combinations of zinc and antibacterial agent, whereas A and B alone represent the individual agents.
If the FIC Index is below 1 (<1) a synergistic effect is established. If the index is like 1 (=1) an additional effect between A and B is seen, whereas an index above 1 (>1) indicates an antagonistic effect.

[1] = 10 microliter solution added to 1 ml human saliva, incubated overnight at 37° C, low AUC = strong inhibitor, control >27 mill
[2] = 10 microliter solution added to 1 ml human saliva, incubated overnight at 37° C, low AUC = strong inhibitor, control >41 mill

Compound	HS (hydrogen sulfide) AUC value (amount of VSC) [1]	MM (methyl mercaptan) AUC value (amount of VSC) [2]	Effect on HS and MM in saliva, in words (incubated human saliva, versus control)	HS (hydrogen sulfide) AUC value (amount of VSC) [mill]	MM (methyl mercaptan) AUC value (amount of VSC) [mill]	Effect on HS and MM in saliva, in words
CC(=O)O.CC(=O)O.NC(=N\CCCCCC/N=C(N)/N=C(\N)Nc1ccc(Cl)cc1)/N=C(\N)Nc1ccc(Cl)cc1 [CHX 0.025%, chlorhexidine acetate]	443 000 AUC	355 000 AUC	clear effect on both HS and MM in the same order of magnitude as zinc acetate	–	–	–
CCCCCCCCCCCCCCCC[n+]1ccccc1 [CPC 0.025%, cethylpyridinium chloride]	–	–	–	5.2	6.89	–
CC(=O)[O-].CC(=O)[O-].[Zn+2] [Zinc Ac. 0.3%, zinc acetate]	150 000 AUC	4 mill	–	–	–	reduced the amount of HS much more than the amount of MM
benzalkonium chloride [Benzalk 0.025%]	1.4 mill	1.7 mill	–	–	–	–
